This is an account of results in paper PMC6943527, “Are the Hydantoin-1,3,5-triazine 5-HT6R Ligands a Hope to a Find New Procognitive and Anti-Obesity Drug? Considerations Based on Primary In Vivo Assays and ADME-Tox Profile In Vitro” (Molecules, 2019).

SMILES strings stand for the structures. Entries after “also recorded” stand apart in the source; their conditions may differ.

The subject of one series is hepatoma HepG2 cell line. Put plainly: Hepatotoxicity assay, HepG2 cell viability. It counts as cell-based. Conditions: HepG2, 0.1-100 µM, 72 h. As to the method:
The cell-based assays were used to investigate safety of the 5-HT6R ligands. […] During the same study, no effect for KMP-10 was observed. Additional safety tests with the hepatoma HepG2 cell line were performed here to estimate the compounds’ hepatotoxicity. A slight antiproliferative effect was observed only for DJ-18 at 100 µM, where the cell viability was decreased to up to ~83% of the control (Figure 9a).
Hepatotoxicity was estimated using the hepatoma HepG2 (ATCC® HB-8065^TM) cell line according to previously described protocols. The CellTiter 96® AQueous Non-Radioactive Cell Proliferation Assay was obtained from Promega (Madison, WI, USA). The compounds were investigated in quadruplicate at four concentrations (0.1–100 µM) for 72h. The antiproliferative drug DX was used as a positive control at a dose of 1 µM.

A short description of series [1]: Model of excessive eating (palatable diet), 3-week administration. It counts as in vivo, male Wistar rats. The protocol: The experiments were carried out on male Wistar rats. Their initial body weight was 210–230 g. The animals were housed in pairs in plastic cages in constant temperature facilities exposed to a light–dark cycle; water and food were available ad libitum. The control and experimental groups consisted of eight animals each. All experiments were conducted according to the guidelines of the Animal Use and Care Committee of the Jagiellonian University and were approved for realization (2013 and 2015, Poland; Permissions No 136/2013 and 258/2015).
In order to determine the anorectic activity of KMP-10, its effect on caloric and water intake in the model of excessive eating was assessed. Male Wistar rats were housed in pairs. Two groups of 8 rats were fed diets consisting of milk chocolate with nuts, cheese, salted peanuts, and 7% condensed milk; these rats also had access to a standard feed (Labofeed B, Morawski Manufacturer Feed, Poland) and water ad libitum for 3 weeks. The palatable control group (palatable diet + vehicle) received vehicle (1% Tween 80, i.p.), while the palatable test group (palatable diet + KMP-10 5 mg) was intraperitoneally injected with KMP-10 at the dose 5 mg/kg b.w./day dissolved in 1% Tween 80. The intakes of food and water were evaluated daily. On the 22th day, 20 min after the i.p. administration of heparin 1000 units/rat and thiopental (70 mg/kg b.w.), blood, peritoneal fat pads, liver were collected from animals.
The palatable diet contained 100 g of peanuts—614 kcal; 100 mL of condensed milk—131 kcal; 100 g of milk chocolate with hazelnuts—[…]; and 100 g of cheese (Greek type)—270 kcal.
The spontaneous activity of rats was measured on the 1st, 14th and 20th day of the treatment with a special RFID-system—TraffiCage (TSE-Systems, Germany). The animals were subcutaneously implanted with transmitter identification (RFID), which enabled the presence and time spent in different areas of the cage to be counted; the data were then grouped in a special computer program.
To determine the glucose or cholesterol or triglyceride levels in blood, standard enzymatic and spectrophotometric tests (Biomaxima S.A. Lublin, Poland) were used. The substrate was decomposed with enzymes that were appropriate for the relevant product, which was converted to a colored compound. Coloration was proportional to the concentration. The absorbance was measured at a wavelength of 500 nm.

On the set-up of series [2]: method as in PMID 30282913. The settings on record: cited from earlier work.
In another series the target is 5-HT2A. Also noted: method as in PMID 30282913. The settings on record: radioligand binding, average of at least two independent experiments; read-out: Ki 5-HT2A [3H]-Ketanserin; cited from earlier work.
Series [3] relates to human embryonic kidney (HEK)-293 cells. Set-up: method as in PMID 30282913. Conditions: highest concentration 100 µM; cited from earlier work.
Another series addresses T1, CYP3A4 (Homo sapiens, UniProt P08684).
T1 construct: purchased Promega (Madison, WI, USA)
The series can be described thus: CYP3A4 P450-Glo drug-drug interaction assay. Format: in vitro ADME. The protocol:
The influence of triazine derivatives on two the most involved in drug metabolism CYP (cytochrome P450) isoforms CYP3A4 and CYP2D6 was also investigated.
The study was performed using the CYP3A4 P450-Glo^TM and CYP2D6 P450-Glo^TM commercial tests provided by Promega (Madison, WI, USA). The influence of compounds on CYPs activity was tested in white polystyrene, flat-bottom Nunc^TM MicroWell^TM 96-well microplates (Thermo Scientific, Waltham, MA USA), and the bioluminescence signal was measured with a microplate reader (EnSpire) in luminescence mode, as described previously. KMP-10 and DJ-18 were tested in triplicate in the range of 0.01–25 µM for both isoforms’ P450 cytochrome. KE and QD were used as the reference compounds for CYP3A4 and CYP2D6, respectively.

Series [4] in a line: Plasma protein binding, TRANSIL XL PPB assay. The settings on record: human, immobilized HSA and AGP at 24:1 (TRANSIL XL PPB assay).
Protocol: (§1) The immobilized HSA and AGP used in this study was included in the commercial test TRANSIL^XL PPB (plasma protein binding) assay.
(§2) The study was performed with use of the commercial TRANSIL^XL PPB Assay (Sovicell, Leipzig, Germany). The test was performed according to recommendations from the protocol provided by the manufacturer. […] Next, the plate was centrifugated at 750 g for 10 min. The supernatants were collected and analyzed by LC/MS.
(§3) The total fraction bound was estimated by:(3) fb=1−1/1+[HSA]/KDHSA+[AGP]/KDAGP
Series [5] has as its system human serum albumin (HSA) and α1-acid glycoprotein (AGP). Put plainly: Plasma protein binding, TRANSIL XL PPB assay.
Protocol: as §1, §2, §3
Details of series [6]: method as in PMID 30282913. The settings on record: "conditional" anxiety-like assay; cited from earlier work.
The next series concerns the target 5-HT6. Also noted: method as in PMID 30282913. Conditions: radioligand binding, average of at least two independent experiments; read-out: Ki 5-HT6 [3H]-LSD; cited from earlier work.
The mark [7] stands for this setting: 5 mg/kg b.w., vs group fed the palatable feed.
The mark [8] stands for this setting: model of excessive eating, 5 mg/kg b.w./day i.p.
Setting [9] is: palatable diet, 5 mg/kg b.w./day i.p., 3 weeks, vs obesity control group.

T1 sequence (P08684 whole entry): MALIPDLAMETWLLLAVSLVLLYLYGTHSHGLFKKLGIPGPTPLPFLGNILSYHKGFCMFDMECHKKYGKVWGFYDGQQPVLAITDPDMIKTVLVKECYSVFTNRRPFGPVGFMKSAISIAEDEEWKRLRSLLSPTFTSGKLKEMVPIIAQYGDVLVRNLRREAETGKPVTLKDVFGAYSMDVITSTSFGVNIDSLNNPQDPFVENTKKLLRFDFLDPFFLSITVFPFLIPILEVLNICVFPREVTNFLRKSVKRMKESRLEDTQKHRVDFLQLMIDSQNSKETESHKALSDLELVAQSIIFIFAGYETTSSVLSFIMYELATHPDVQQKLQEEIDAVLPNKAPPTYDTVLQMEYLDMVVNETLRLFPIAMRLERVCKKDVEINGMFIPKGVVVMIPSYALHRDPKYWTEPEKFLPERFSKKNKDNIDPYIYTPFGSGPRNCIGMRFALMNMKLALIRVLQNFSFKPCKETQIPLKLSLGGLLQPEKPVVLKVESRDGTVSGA

For orientation: Ki means the dissociation constant of the complex between target and ligand, obtained from inhibition or displacement. What is called fraction unbound is free concentration divided by total concentration. For the molecule `CN1CCN(c2nc(N)nc(CN3C(=O)NC(C)(c4ccc5ccccc5c4)C3=O)n2)CC1` (stereo not drawn) [KMP-10, 3-((4-amino-6-(4-methylpiperazin-1-yl)-1,3,5-triazin-2-yl)methyl)-5-methyl-5-(naphthalen-2-yl)imidazolidine-2,4-dione], the Hepatotoxic character entry in the series on hepatoma HepG2 cell line is recorded as “did not show any hepatotoxic character”. For the same molecule, in series [1] (setting [7]), the HDL cholesterol entry is reported as “significantly increased; also recorded: significant increase” and the “Total cholesterol in blood” value is “significantly decreased”. In addition, in series [1] (setting [8]), the Plasma glucose entry was “did not reduce” and the Plasma triglyceride result is reported as “did not reduce”. In addition, in series [1] (setting [9]), the “Amount of calories consumed” value was “significantly reduced” and the Water intake entry is recorded as “but not water intake”. In addition, the “Amount of peritoneal fat” value in series [1] (three-week chronic treatment, 5 mg/kg b.w./day i.p.) was “did not reduce”. Further, the “Antidepressive-like properties in the Porsolt model” value in [2] is listed as “antidepressive-like properties”. Besides, at 5-HT2A, the inhibition constant (Ki) is 17.2 µM. The HEK-293 cells viability result in [3] is reported as “no effect”. In addition, the “Effect on CYP3A4 activity” value at CYP3A4 (highest used dose of 25 µM) was “slight stimulation effect”. Further, the “Influence on CYP3A4” value on CYP3A4 (summary in comparison to SUVN-502) is “almost no influence”. In series [4], the fraction unbound at 12 min, 5 µM was 0.155. Further, the “PPB KD” value in series [5] (immobilized HSA and AGP 24:1, 5 µM compound) is 112 µM. The “PPB KD, fold higher than warfarin” value in [5] (vs warfarin) is recorded as ~ 10 fold. The “Anxiolytic-like effects in Vogel-conflict test” value in series [6] is “confirmed”. For the same molecule, the inhibitory constant (Ki) on 5-HT6 is 0.087 µM.
